These results are taken from patent publication US20250381206A1, “INVARIANT NATURAL KILLER T-CELL ACTIVATORS” (Deciduous Therapeutics, Inc., priority 2022, published 2025).

For experiment [1], the target named is T1, human iTCR (Homo sapiens, UniProt P15813).
T1 sequence (P15813 1-335): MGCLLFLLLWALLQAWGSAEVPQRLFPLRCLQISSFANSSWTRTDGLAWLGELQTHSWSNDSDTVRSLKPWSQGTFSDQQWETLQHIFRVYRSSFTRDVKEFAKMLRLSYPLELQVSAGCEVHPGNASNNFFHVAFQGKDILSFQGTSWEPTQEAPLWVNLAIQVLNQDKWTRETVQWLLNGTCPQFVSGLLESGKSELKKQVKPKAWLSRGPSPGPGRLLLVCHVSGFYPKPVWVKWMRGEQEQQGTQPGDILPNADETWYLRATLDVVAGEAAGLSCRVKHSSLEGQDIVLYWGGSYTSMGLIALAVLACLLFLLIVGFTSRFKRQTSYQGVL
Nature of the experiment: In vitro activation of human iTCR through a Jurkat reporter cell line (JiNKT, GFP under NFKB promoter) co-cultured with compound-loaded BWSTIM cells. It is filed as cell-based. The settings on record: percentage of JiNKT cells expressing high levels of GFP by flow cytometry; BWSTIM loaded 4 hours, co-cultured 18 to 24 hours. The source says:
To determine the human iTCR activation potential induced by the compounds described herein, a Jurkat cell line (JiNKT) was transfected with the human iTCR, and GFP under the NFKB promoter (cell line licensed from the Medical University of Vienna). A BWS147 cell line (BWSTIM) was also transfected with CD80 and CD1d to act as the antigen-presenting cell.
Any of the compounds provided herein may be used in this example, including the exemplary compounds of Tables 1 and 2. Test compounds were dissolved in DMSO at a 5 mg/mL stock solution. BWSTIM cells were loaded with test compounds at varying concentrations for 4 hours at 37° C. at a concentration of 20k cells/well in 200 μL of media in a u-bottom 96 well dish. BWSTIM cells were washed 2× with media, then incubated with JiNKT cells at a concentration of 80k cells/well in a u-bottom 96 well dish. Cells were co-cultured for 18 to 24 hours. The percentage of cells expressing high levels of GFP was measured through flow cytometry (after gating out the mCD45+ BWSTIM cells).
In general terms: A flow cytometer gives signals particle by particle.

In experiment [2] the test system is C57BL/6J mice. Nature of the experiment: In vivo IFNγ activation and iNKT cell expansion in C57BL/6J mice. More on the design: species or system mouse. The following applies: 2 μg I.P.; for Naïve Mouse In Vivo IFNγ: average serum IFNγ by ELISA, twenty hours post-injection, eight weeks old C57BL/6J mice; for Naïve Mouse In Vivo CD3 + iNKT + cells (Fold increase over veh control): iNKT cells within splenocytes by flow cytometry, four days post-injection, C57BL/6J mice. How it is done:
Any of the compounds provided herein may be used in this example, including the exemplary compounds of Tables 1 and 2. To determine the expansion induced by the compounds described herein, test compounds were injected into C57BL/6J mice. Serum IFNγ levels and the expansion of iNKT cells within splenocytes was measured 4 days post-IP injection.
Eight weeks old C57BL/6J mice were injected (I.P.) with 2 μg of test compounds. The test compounds were either dissolved in DMSO at a 5 mg/mL stock solution, or formulated into liposomes through thin-film rehydration, then extrusion through 200 nm filters. Liposome-based formulations were constructed using soy phosphatidylcholine, cholesterol, and test compound in a 2:1:0.15 ratio. Twenty hours post-injection, blood was collected from the tail to measure the level of serum IFNγ using an ELISA kit from Biolegend. Four days post-injection, the mice were sacrificed and the splenocytes were isolated. The percentage of iNKT cells within the spleens was measured using flow cytometry, selecting for live cells and mouse CD1d-α-GalCer tetramer+ cells.
In response to injection of several exemplary compounds, the average serum IFNγ collected and fold change of cells are shown in Table B4 below.
On the technique in general: ELISA stands for enzyme-linked immunosorbent assay.

pEC50: −log10 of the molar value.

With `CCCCCCCCCCCCCCC[C@@H](O)[C@H](CC[C@H]1O[C@H](COC(=O)CCc2ccccc2)[C@H](O)[C@H](O)[C@H]1O)NC(=O)CCCCCCCCCCCCCCCCCCCCCCCC12CC(F)(C1)C2` [Compound I-4, ((2R,3R,4R,5R,6R)-6-((3S,4R)-3-(24-(3-fluorobicyclo[1.1.1]pentan-1-yl)tetracosanamido)-4-hydroxynonadecyl)-3,4,5-trihydroxytetrahydro-2H-pyran-2-yl)methyl 3-phenylpropanoate], in experiment [1], the pEC50 was 6.21. Also, in experiment [2], the “Naïve Mouse In Vivo IFNγ” value stood at 28208 ± 4723 pg/mL and the “Naïve Mouse In Vivo CD3 + iNKT + cells (Fold increase over veh control)” value is listed as 4.09 ± 0.78 Fold increase over veh control.
`CCCCCCCCCCCCCC[C@@H](O)[C@@H](O)[C@H](CO[C@H]1O[C@H](COC(=O)CCc2ccccc2)[C@H](O)[C@H](O)[C@H]1O)NC(=O)CCCCCCCCCCCCCCCCCCCCCCCC12CC(F)(C1)C2` [Compound I-3, ((2R,3R,4S,5R,6S)-6-(((2S,3S,4R)-2-(24-(3-fluorobicyclo[1.1.1]pentan-1-yl)tetracosanamido)-3,4-dihydroxyoctadecyl)oxy)-3,4,5-trihydroxytetrahydro-2H-pyran-2-yl)methyl 3-phenylpropanoate]: the negative logarithm of the EC50 (pEC50) in experiment [1] was 6.04. In addition, in experiment [2], the “Naïve Mouse In Vivo IFNγ” value is recorded as 8506 ± 790 pg/mL and the “Naïve Mouse In Vivo CD3 + iNKT + cells (Fold increase over veh control)” value is 1.12 ± 0.19 Fold increase over veh control.
Regarding `CCCCCCCCCCCCCCC[C@@H](O)[C@H](CO[C@H]1O[C@H](COC(=O)CCc2ccccc2)[C@H](O)[C@H](O)[C@H]1O)NC(=O)CCCCCCCCCCCCCCCCCCCCCCCC1CCS(=O)(=O)CC1` [Compound I-6, ((2R,3R,4S,5R,6S)-6-(((2S,3R)-2-(24-(1,1-dioxidotetrahydro-2H-thiopyran-4-yl)tetracosanamido)-3-hydroxyoctadecyl)oxy)-3,4,5-trihydroxytetrahydro-2H-pyran-2-yl)methyl 3-phenylpropanoate], the negative-log EC50 (pEC50) in experiment [1] is 6.10. Further, in experiment [2], the “Naïve Mouse In Vivo IFNγ” value came to 43930 ± 43396 pg/mL and the “Naïve Mouse In Vivo CD3 + iNKT + cells (Fold increase over veh control)” value was 1.89 ± 0.44 Fold increase over veh control.
Consider `CCCCCCCCCCCCCCC[C@@H](O)[C@H](CO[C@H]1O[C@H](CO)[C@H](O)[C@H](O)[C@H]1O)NC(=O)CCCCCCCCCCCCCCCCCCCCCCCC12CC(F)(C1)C2` [Compound I-2, 24-(3-fluorobicyclo[1.1.1]pentan-1-yl)-N-((2S,3R)-3-hydroxy-1-(((2S,3R,4S,5R,6R)-3,4,5-trihydroxy-6-(hydroxymethyl)tetrahydro-2H-pyran-2-yl)oxy)octadecan-2-yl)tetracosanamide], for which the negative logarithm of the EC50 (pEC50) in experiment [1] is 5.75. In addition, in experiment [2], the “Naïve Mouse In Vivo IFNγ” value is on record as 8128 ± 1209 pg/mL and the “Naïve Mouse In Vivo CD3 + iNKT + cells (Fold increase over veh control)” value was 2.21 ± 0.38 Fold increase over veh control.
For `CCCCCCCCCCCCCC[C@@H](O)[C@@H](O)[C@H](CC[C@H]1O[C@H](CO)[C@H](O)[C@H](O)[C@H]1O)NC(=O)CCCCCCCCCCCCCCCCCCCCCCCC12CC(F)(C1)C2` [Compound I-7, N-((3S,4S,5R)-4,5-dihydroxy-1-((2R,3R,4R,5R,6R)-3,4,5-trihydroxy-6-(hydroxymethyl)tetrahydro-2H-pyran-2-yl)nonadecan-3-yl)-24-(3-fluorobicyclo[1.1.1]pentan-1-yl)tetracosanamide], in experiment [1], the pEC50 was 5.93.

Broadly, the pEC50 is −log10 of the EC50, conventionally taken in molar units.
